Laboratory results as given in article PMC9316317, “Reducing the Kidney Uptake of High Contrast CXCR4 PET Imaging Agents via Linker Modifications” (Pharmaceutics, 2022).
Where two headings read alike, the source gives them in different places. Each block holds one compound with its values, some of them ahead of it. Where a SMILES comes first, the peptide text is derived from it. Bridges are numbered along the chain shown (N, C = ends). Side-chain parts run from the residue outwards. [ ]: non-standard residue; d: D form. The star is where a group is joined. DOTA = O=C(O)CN1CCN(CC(=O)O)CCN(CC(=O)*)CCN(CC(=O)O)CC1; 2Nal = N[C@@H](Cc1ccc2ccccc2c1)C(=O)O; Lys(iPr) = CC(C)NCCCC[C@H](N)C(=O)O

Experiments:
in vivo = settings: male, NOD.Cg-Rag1tm1Mom Il2rgtm1Wjl/SzJ (NRG), mouse, iv, total radioactivity
Procedure: (§1) Male NOD.Cg-Rag1tm1Mom Il2rgtm1Wjl/SzJ (NRG) mice were obtained from an in-house breeding colony at the Animal Resource Centre of the BC Cancer Research Centre, Vancouver, Canada. Mice (6–10 weeks old, 25–30 g weight) were subcutaneously inoculated with 5 × 10^6 Daudi cells (100 μL; 1:1 ratio of PBS/Matrigel) on the left flank.
(§2) Additional groups of mice received 7.5 µg (0.25–0.3 mg/kg) LY2510924 as a blocking control i.p. 15 min before radiotracer injection, and euthanized 1 h p.i. Tissues were harvested, washed in PBS, blotted dry, and weighed, and radioactivity was counted on a Hidex AMG Automatic Gamma Counter. The counts were decay corrected, converted to absolute units using a calibration curve, and expressed as percent injected dose per gram of tissue (%ID/g).

mCXCR4 = system: mCXCR4; set-up: method as in PMID 29212254; settings: cited from earlier work
[1] = quoted in discussion, approximate; ammonium salt of N-methylpiperidine; carboxylate in aspartate; no reference given; cited from earlier work
Source text: The placement of three consecutive charged amino acids may increase the pKa of the neighboring carboxylate due to unfavorable electrostatic repulsions. The sulfonate has a lower pKa than a carboxylate (approximately −1.7 versus 1.9 in aspartate), and as such, may be able to better retain its negative charge, thereby increasing the excretion of the radiotracer from the kidneys. However, there was no difference in LogD7.4 values between [^68Ga]Ga-BL02 and [^68Ga]Ga-BL31. The increased capacity to hold a negative cha ...

[2] = system: CXCR4-expressing Daudi xenograft mice; settings: mouse, in vivo, iv
Procedure: as §1, §2

tissue uptake at 1 h (in vivo; Tumor uptake (Daudi xenograft)): 0.59 %ID/g
Compound: CC(C)NCCCC[C@@H]1NC(=O)[C@H](Cc2ccc(O)cc2)NC(=O)[C@H](Cc2ccccc2)NC(=O)CC[C@H](C(=O)N[C@@H](CCCCNC(C)C)C(=O)N[C@@H](CCCCNC(=O)[C@@H](CCC(=O)O)NC(=O)[C@@H](CCC(=O)O)NC(=O)[C@@H](CCC(=O)O)NC(=O)CN2CCN(CC(=O)O)CCN(CC(=O)O)CCN(CC(=O)O)CC2)C(N)=O)NC(=O)CNC(=O)[C@H](Cc2ccc3ccccc3c2)NC(=O)[C@@H](CCCNC(=N)N)NC1=O [[68Ga]Ga-BL20, metal not drawn] (FY[Lys(iPr)][dR][2Nal]G[dE][Lys(iPr)]K([dE-dE-dE-DOTA])-NH2; lactam N-7)

Compound: LY2510924
decrease in affinity to mCXCR4 as compared to hCXCR4 (mCXCR4): > 1000 fold

Compound: CN1CCCCC1 [N-methylpiperidine]
pKa [1]: approximately 10.08

Blood uptake ([2]; 1 h): 0.27 ± 0.06 %ID/g
Liver uptake ([2]; 1 h): 0.57 ± 0.07 %ID/g
Lung uptake ([2]; 1 h): 0.45 ± 0.08 %ID/g
Spleen uptake ([2]; 1 h): 0.47 ± 0.22 %ID/g
Kidney uptake ([2]; 2 h): 3.40 ± 0.51 %ID/g
Liver uptake ([2]; 2 h): 0.54 ± 0.04 %ID/g
Lung uptake ([2]; 2 h): 0.27 ± 0.09 %ID/g
tissue uptake at 1 h (in vivo; Kidney uptake): 3.81 ± 0.86 %ID/g
Compound: CC(C)NCCCC[C@@H]1NC(=O)[C@H](Cc2ccc(O)cc2)NC(=O)[C@H](Cc2ccccc2)NC(=O)CC[C@H](C(=O)N[C@@H](CCCCNC(C)C)C(=O)N[C@@H](CCCCNC(=O)[C@H](CCC(=O)O)NC(=O)[C@H](CCC(=O)O)NC(=O)[C@H](CCC(=O)O)NC(=O)CN2CCN(CC(=O)O)CCN(CC(=O)O)CCN(CC(=O)O)CC2)C(N)=O)NC(=O)CNC(=O)[C@H](Cc2ccc3ccccc3c2)NC(=O)[C@@H](CCCNC(=N)N)NC1=O [[68Ga]Ga-BL02, metal not drawn] (FY[Lys(iPr)][dR][2Nal]G[dE][Lys(iPr)]K([Glu-Glu-Glu-DOTA])-NH2; lactam N-7 (inferred); C-terminus assumed)

Compound: N[C@@H](CC(=O)O)C(=O)O [aspartate]
pKa [1]: ~1.9
